Results from US11524966B1 (Valo Early Discovery, Inc., priority 2017, dated 2022).

Molecular target: T1, USP25 (USP25-His6, Boston Biochem E-546) (Homo sapiens, UniProt Q9UHP3)
T1 construct: His6; purchased Boston Biochem E-546
T1 sequence (Q9UHP3 1-1055): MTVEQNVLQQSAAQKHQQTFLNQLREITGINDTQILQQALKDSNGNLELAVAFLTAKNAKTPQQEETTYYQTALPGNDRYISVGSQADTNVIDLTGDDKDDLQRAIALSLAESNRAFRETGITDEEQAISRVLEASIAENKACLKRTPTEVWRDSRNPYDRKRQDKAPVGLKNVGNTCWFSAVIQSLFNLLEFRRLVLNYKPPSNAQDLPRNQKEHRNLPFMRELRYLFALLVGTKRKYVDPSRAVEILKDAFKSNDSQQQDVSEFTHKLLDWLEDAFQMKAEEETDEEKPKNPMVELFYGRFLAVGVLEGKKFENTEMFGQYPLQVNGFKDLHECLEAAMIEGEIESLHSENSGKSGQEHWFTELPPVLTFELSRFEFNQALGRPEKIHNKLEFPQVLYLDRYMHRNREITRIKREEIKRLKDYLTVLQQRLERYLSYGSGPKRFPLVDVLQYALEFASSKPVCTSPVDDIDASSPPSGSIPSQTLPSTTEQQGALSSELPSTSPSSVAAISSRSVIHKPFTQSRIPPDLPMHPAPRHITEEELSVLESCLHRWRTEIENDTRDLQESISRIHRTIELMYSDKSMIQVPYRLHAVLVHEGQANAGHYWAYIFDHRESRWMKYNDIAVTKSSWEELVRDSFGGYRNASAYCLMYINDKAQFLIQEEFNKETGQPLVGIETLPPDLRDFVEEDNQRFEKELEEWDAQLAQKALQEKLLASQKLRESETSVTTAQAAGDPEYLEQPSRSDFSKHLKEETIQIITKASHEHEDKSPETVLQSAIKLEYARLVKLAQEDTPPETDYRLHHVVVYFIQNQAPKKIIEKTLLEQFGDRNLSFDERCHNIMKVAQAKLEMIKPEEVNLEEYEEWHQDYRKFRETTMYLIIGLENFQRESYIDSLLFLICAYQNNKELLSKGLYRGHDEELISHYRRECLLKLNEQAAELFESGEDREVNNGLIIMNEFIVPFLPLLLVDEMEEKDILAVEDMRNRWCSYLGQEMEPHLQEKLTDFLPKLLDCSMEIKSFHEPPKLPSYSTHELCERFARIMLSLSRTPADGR
Experiment: Ubiquitin-Rhodamine 110 Assay for USP25 Activity, Example A-2
Format: biochemical
Conditions: Ubiquitin-Rhodamine 110 assay, Example A-2; read-out: USP25 A-2 IC50 range
Summary of the method: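 Read-out: Rh110 fluorescence (ex 485, em 535 nm) after 45 min RT turnover of 25 nM Ub-Rh110 by 75 pM USP25-His6, quenched with 10 mM citric acid. Compounds at 25 μM–1.3 nM, preincubated 30 min with enzyme. IC50 from 4-parameter logistic fit.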

SMILES	IC50 [nM]
Cc1cnc2c(N)c(C(=O)N[C@H]3CCc4nc(N5C[C@H](N)C6(COC6)C5)ccc4C3)sc2n1 [Example 365, 7-amino-N-[(6S)-2-[(8R)-8-amino-2-oxa-6-azaspiro[3.4]octan-6-yl]-5,6,7,8-tetrahydroquinolin-6-yl]-3-methylthieno[2,3-b]pyrazine-6-carboxamide]	200 to 2000
Cc1ccc2c(N)c(C(=O)N[C@H]3COc4cc(N5C[C@H](N)CC56COC6)ccc4C3)sc2n1 (single isomer, unassigned) [Example 351]	1 to 50
Cc1ccc2c(N)c(C(=O)N[C@H]3COc4cc(N5CCC(C(=O)O)CC5)ccc4C3)sc2n1 [Example 6-1, (R)-1-(3-(3-Amino-6-methylthieno[2,3-b]pyridine-2-carboxamido)chroman-7-yl)piperidine-4-carboxylic Acid]	> 2000
Cc1ccc2c(N)c(C(=O)N[C@H]3COc4cc(N5CCC[C@@](C)(O)C5)ccc4C3)sc2n1 [Example 7-3, 3-amino-N-((R)-7-((R)-3-hydroxy-3-methylpiperidin-l-yl)chroman-3-yl)-6-methylthieno[2,3-b]pyridine-2-carboxamide]	200 to 2000
Cc1ccc2c(N)c(C(=O)N[C@H]3COc4cc(N5C[C@@H](N)[C@H](OC(F)(F)F)C5)ccc4C3)sc2n1 (single isomer, unassigned) [Example 3-9]	200 to 2000
Cc1ccc2c(N)c(C(=O)N[C@H]3CCc4nc(N5C[C@H](C(F)F)[C@@H](N)C5)ccc4C3)sc2n1 [Example 347, 3-amino-N-[(6S)-2-[(3R,4S)-3-amino-4-(difluoromethyl)pyrrolidin-1-yl]-5,6,7,8-tetrahydroquinolin-6-yl]-6-methylthieno[2,3-b]pyridine-2-carboxamide]	200 to 2000
O=C(N[C@H]1COc2cc(N3CC4CCC(C3)N4)ccc2C1)c1cnc2c(c1)[C@H]1C[C@H]1CN2 [Example 3-16, (1aR,7bS)-N-((3R)-7-(3,8-diazabicyclo[3.2.1]octan-3-yl)chroman-3-yl)-1a,2,3,7b-tetrahydro-1H-cyclopropa[c][1,8]naphthyridine-6-carboxamide]	> 2000
O=C(N[C@H]1COc2cc(N3CCNCC3)ccc2C1)c1cnn2cccnc12 [Example 466, (R)-N-(7-(piperazin-1-yl)chroman-3-yl)pyrazolo[1,5-a]pyrimidine-3-carboxamide]	> 2000
Cc1ccn2ncc(C(=O)N[C@H]3COc4cc(N5CCNCC5)ccc4C3)c2c1 [Example 465, (R)-5-methyl-N-(7-(piperazin-1-yl)chroman-3-yl)pyrazolo[1,5-a]pyridine-3-carboxamide]	> 2000
O=C(N[C@H]1COc2cc(N3CCNCC3)ccc2C1)c1cn2nc(Cl)ccc2n1 [Example 464, (R)-6-chloro-N-(7-(piperazin-1-yl)chroman-3-yl)imidazo[1,2-b]pyridazine-2-carboxamide]	> 2000
Cc1ccc2c(N)c(C(=O)N[C@H]3CCc4cc(N5CCNCC5)c(F)c(F)c4C3)sc2n1 [Example 417, 3-amino-N-[(2S)-7,8-difluoro-6-(piperazin-1-yl)-1,2,3,4-tetrahydronaphthalen-2-yl]-6-methylthieno[2,3-b]pyridine-2-carboxamide]	> 2000
Cc1ccc2c(N)c(C(=O)N[C@H]3COc4cc(N5CC6CNC[C@](C)(C5)O6)cc(F)c4C3)sc2n1 [Example 413, 3-amino-N-[(3R)-5-fluoro-7-[(1R)-1-methyl-9-oxa-3,7-diazabicyclo[3.3.1]nonan-3-yl]-3,4-dihydro-2H-1-benzopyran-3-yl]-6-methylthieno[2,3-b]pyridine-2-carboxamide]	200 to 2000
Cc1cnc2c(N)c(C(=O)N[C@H]3CCc4cc(N5CC(C(=O)O)C5)ccc4C3)sc2n1 [Example 6-4, (S)-1-(6-(7-amino-3-methylthieno[2,3-b]pyrazine-6-carboxamido)-5,6,7,8-tetrahydronaphthalen-2-yl)azetidine-3-carboxylic acid]	> 2000
Cc1ccc2c(N)c(C(=O)N[C@H]3CCc4nc(N5C[C@H](N)[C@@H](C(F)(F)F)C5)ccc4C3)sc2n1 [Example 363, 3-amino-N-[(6S)-2-[(3R,4S)-3-amino-4-(trifluoromethyl)pyrrolidin-1-yl]-5,6,7,8-tetrahydroquinolin-6-yl]-6-methylthieno[2,3-b]pyridine-2-carboxamide]	200 to 2000
Cc1ccc2c(N)c(C(=O)N[C@H]3CCc4nc(N5C[C@H](N)[C@@]6(CCCO6)C5)ccc4C3)sc2n1 [Example 393, 3-amino-N-[(6S)-2-[(5R,9S)-9-amino-1-oxa-7-azaspiro[4.4]nonan-7-yl]-5,6,7,8-tetrahydroquinolin-6-yl]-6-methylthieno[2,3-b]pyridine-2-carboxamide]	> 2000
Cc1ccc2c(N)c(C(=O)N[C@H]3CCc4nc(N5C[C@@H](N)[C@@]6(CCCO6)C5)ccc4C3)sc2n1 [Example 392, 3-amino-N-[(6S)-2-[(5R,9R)-9-amino-1-oxa-7-azaspiro[4.4]nonan-7-yl]-5,6,7,8-tetrahydroquinolin-6-yl]-6-methylthieno[2,3-b]pyridine-2-carboxamide]	> 2000
O=C(N[C@H]1COc2cc(N3CCNCC3)ccc2C1)c1ccc(NCc2cccc(C(F)(F)F)c2)nc1 [Example 469, (R)-N-(7-(piperazin-1-yl)chroman-3-yl)-6-((3-(trifluoromethyl)benzyl)amino)nicotinamide]	50 to 200
Cc1ccc2c(N)c(C(=O)N[C@H]3COc4cc(N5CC[C@H](N)C5)ccc4C3)sc2n1 [Example 369, 3-amino-N-[(3R)-7-[(3S)-3-aminopyrrolidin-1-yl]-3,4-dihydro-2H-1-benzopyran-3-yl]-6-methylthieno[2,3-b]pyridine-2-carboxamide]	50 to 200
O=C(N[C@H]1COc2cc(N3CCNCC3)ccc2C1)c1ccc(NCc2cccnc2)nc1 [Example 468, (R)-N-(7-(piperazin-1-yl)chroman-3-yl)-6-((pyridin-3-ylmethyl)amino)nicotinamide]	> 2000
O=C(N[C@H]1CCc2c(c(F)cc(N3CC4CCC(C3)N4)c2C(F)F)C1)c1cnc2c(c1)[C@@H]1C[C@@H]1CN2 (single isomer, unassigned) [Example 359]	> 2000
Cc1ccc2c(N)c(C(=O)N[C@@H]3COc4c(cc(F)c(N5CCNCC5)c4F)C3)sc2n1 (single isomer, unassigned) [Example 3-18]	> 2000
Cc1ccc2c(N)c(C(=O)N[C@H]3COc4cc(N5C[C@@H](N)CC56COC6)ccc4C3)sc2n1 (single isomer, unassigned) [Example 352]	50 to 200
Cc1cnc2c(N)c(C(=O)N[C@@H]3CCc4cc(N5CC6CNCC(C5)O6)ccc4C3)sc2n1 [Example 450, N-((2R)-6-(9-oxa-3,7-diazabicyclo[3.3.1]nonan-3-yl)-1,2,3,4-tetrahydronaphthalen-2-yl)-7-amino-3-methylthieno[2,3-b]pyrazine-6-carboxamide]	> 2000
Cc1cnc2c(N)c(C(=O)N[C@H]3CCc4cc(N5CC6COCC(C5)N6)ccc4C3)sc2n1 [Example 456, N-((2S)-6-(3-oxa-7,9-diazabicyclo[3.3.1]nonan-7-yl)-1,2,3,4-tetrahydronaphthalen-2-yl)-7-amino-3-methylthieno[2,3-b]pyrazine-6-carboxamide]	> 2000
Cc1ccc2c(N)c(C(=O)N[C@H]3CCc4nc(N5C[C@@H](N)[C@@H](C(F)F)C5)ccc4C3)sc2n1 [Example 346, 3-amino-N-[(6S)-2-[(3S,4S)-3-amino-4-(difluoromethyl)pyrrolidin-1-yl]-5,6,7,8-tetrahydroquinolin-6-yl]-6-methylthieno[2,3-b]pyridine-2-carboxamide]	200 to 2000
O=C(N[C@H]1COc2cc(N3CCNCC3)ccc2C1)c1ccc(NCc2ccc3c(c2)OCCO3)nc1 [Example 471, (R)-6-(((2,3-dihydrobenzo[b][1,4]dioxin-6-yl)methyl)amino)-N-(7-(piperazin-1-yl)chroman-3-yl)nicotinamide]	200 to 2000
O=C(N[C@@H]1CCc2c(c(F)cc(N3CC4CCC(C3)N4)c2C(F)F)C1)c1cnc2c(c1)[C@@H]1C[C@@H]1CN2 (single isomer, unassigned) [Example 361]	> 2000
O=C(N[C@@H]1CCc2c(c(F)cc(N3CC4CCC(C3)N4)c2C(F)F)C1)c1cnc2c(c1)[C@H]1C[C@H]1CN2 (single isomer, unassigned) [Example 362]	200 to 2000
